Measured values: ChEMBL document CHEMBL3430912, “GSK Tres Cantos Anti-Kinetoplastid Screening (TCAKS) Data”

Experiments:
Trypanosoma cruzi [1] = test: GSK_TCAKS: pIC50 Trypanosoma cruzi viability assay using beta-GAL activity. This assay was run at single shot at 5uM compound concentration per well. The biological reagents consisted of NIH-3T3 host cells and trypomastigotes parasitic cells; both cell types were set to a 3.3 * 10^5 cells/mL dilution in assay DMEM by means of a CASY cell counter device using a 60um capillary. 6 uL of the mixture were dispensed per well (about 1 * 10^3 host-cells and 1 * 10^3 parasites) with a Multidrop Combi dispenser. […] In all wells, the percentage of DMSO never exceeded 0.5%. Plates incubated for four days at 37C, 5% CO2. The substrate used for the assay fluorescence intensity (FLINT) readout was resorufin-beta-D-galactopiranoside (Sigma-Aldrich) at 5uM per well. It was diluted in PBS supplemented with the soft detergent Igepal (Fluka).; assay type: functional, organism-based, Mus musculus; conditions: Tulahuen, NIH3T3
[2] = tested on: Trypanosoma brucei brucei; test: GSK_TCAKS: pIC50 Trypanosoma brucei viability assay using luminiscence. Assay plates (1536-well) were prepared. T. brucei cultures were harvested and counted in a CASY cell counter. A parasite suspension was prepared at a final concentration of 5 * 10^4 cells/mL in complete HMI9 medium and 6uL was dispensed to all wells containing compounds using a Multidrop Combi dispenser. 6uL of HMI9 media with 0.4% DMSO were dispensed to control columns. Plates were incubated for 24 h at 37C, 5% CO2 then tempered for 10 min at room temperature. ATP content was quantified by adding 4 uL of CellTiter-Glo Reagent (Promega) according to the manufacturer's instructions. Luminescence was measured using a ViewLux.; assay type: functional, organism-based; conditions: Lister 427, CASY
[3] = tested on: Trypanosoma brucei brucei; test: GSK_TCAKS: pIC50 Trypanosoma brucei viability assay using fluorescence intensity. Assay plates (1536-well) were prepared by dispensing 25nL of compound solution per well using an Echo acoustic dispenser (Labcyte).; assay type: functional, organism-based; conditions: Lister 427, 2 h
[4] = biological target: Sterol 14-alpha demethylase (Trypanosoma cruzi (strain CL Brener), UniProt Q7Z1V1); test: GSK_TCAKS: pIC50 CYP51 from Trypanosoma cruzi.; assay type: functional
Sterol 14-alpha demethylase, sequence (Q7Z1V1 whole entry): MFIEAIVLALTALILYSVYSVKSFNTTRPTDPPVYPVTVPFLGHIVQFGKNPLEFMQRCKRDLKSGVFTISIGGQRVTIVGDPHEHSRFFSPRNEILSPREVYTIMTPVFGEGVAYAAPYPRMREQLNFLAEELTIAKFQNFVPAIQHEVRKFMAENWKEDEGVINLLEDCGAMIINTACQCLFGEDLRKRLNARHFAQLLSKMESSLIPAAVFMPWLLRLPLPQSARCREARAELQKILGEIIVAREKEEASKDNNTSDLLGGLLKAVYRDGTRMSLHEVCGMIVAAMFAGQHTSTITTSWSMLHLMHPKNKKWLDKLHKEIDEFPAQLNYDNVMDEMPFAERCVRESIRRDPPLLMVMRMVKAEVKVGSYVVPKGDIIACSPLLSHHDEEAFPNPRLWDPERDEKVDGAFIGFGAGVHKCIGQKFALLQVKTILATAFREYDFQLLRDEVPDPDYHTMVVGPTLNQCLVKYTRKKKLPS

[5] = GSK_TCAKS: pIC50 HepG2 human cell line viability assay using luminiscence. […] Seeding density was checked to ensure that new mono-layers were not more than 50% confluent at the time of harvesting. Cell suspension was added to 500 mL of the same medium at a final density of 1.2 * 10^5 cells/mL. This cell suspension was dispensed (25 uL, 3000 cells per well) into 384-well clear-bottom plates using a Multidrop Combi dispenser. Prior to addition of the cell suspension, the screening compounds (250 nL) were pre-dispensed into the plates with an Echo liquid handler. Plates were incubated for 48 h at 37C, 5% CO2. After incubation, plates equilibrated at room temperature for 30 min before proceeding to develop the luminescent signal. The signal developer, CellTiter-Glo Reagent, was allowed to equilibrate at room temperature for 30 min and added to the plates (25uL per well) using a Multidrop Combi dispenser. Plates were left for 10 min at room temperature for stabilization and then read using a ViewLux.; assay type: toxicity, cell-based
Trypanosoma cruzi [6] = test: (§1) GSK_TCAKS: pIC50 Trypanosoma cruzi Imaging: Infected Cells. […] Cells were then washed once with PBS before infection. T. cruzi trypomastigotes, collected at days 5 to 8 after infection from LLC-MK2 parasite infected cultures, were allowed to swim out for 4h at 37C from a centrifuged pellet (2,500 rpm/10 min/room temperature). Trypomastigotes were then collected and counted in a CASY Cell Counter. Trypomastigotes, in supplemented DMEM, were added to H9c2 cultures in a multiplicity of infection of 1 and incubated for 18 h. Cells were washed once with PBS before incubation of the infected H9c2 monolayer with trypsin (Life-Technologies) to detach cells from the flask. Cells were counted in a CASY Cell Counter using a 150 um capillary and their density set at 5 * 10^4 cells per mL in supplemented assay DMEM. Infected H9c2 were dispensed into 384-well poly-lysine coated assay plates at 50uL per well using a Multidrop Combi dispenser. After seeding them, the plates were incubated at 37C, 5% CO2 for 72h. Cultures were then fixed and stained by addition of 50 uL of a solution containing 8% formaldehyde and 4 uM DRAQ5 DNA dye (BioStatus, UK) per well. […] Five images were collected per well for reliable statistical analysis. Automated image analysis was performed with a script developed on Acapella High Content Imaging and Analysis Software (PerkinElmer). Output: percentage of infected cells per well as a second infection marker.; assay type: functional, organism-based, Rattus norvegicus; conditions: H9c2, 4 h
Leishmania donovani [7] = test: (§2) GSK_TCAKS: pIC50 Leishmania donovani Imaging: Infected Macrophages. Assay plates (384-well) were prepared by adding 250nL of compound to each well. For single shot assay, the final compound concentration was 5 uM. […] Automated image analysis was performed with a script developed on Acapella High Content Imaging and Analysis Software (PerkinElmer). Output: Percent of infected macrophage cells were reported for each well.; assay type: functional, organism-based, Homo sapiens; conditions: THP-1
Leishmania donovani [8] = test: GSK_TCAKS: pIC50 Leishmania donovani viability assay using fluorescence intensity. Assay plates (1536-well) were prepared by adding 30nL per well of compound. For single shot assay, the final compound concentration was 5uM. […] Briefly, eGFP LdBOB axenic amastigotes were harvested, fixed and counted in a CASY cell counter (Roche-Applied Science). A final concentration of 1.5 * 10^5 cells per well were prepared in amastigote media containing 500 U/mL penicillin/streptomycin (Invitrogen) and 6uL was dispensed to each experimental well using a Multidrop Combi dispenser (Thermo Scientific). 6uL of assay media was dispensed to control columns used as reference for 100% compound response. Following incubation for 72 h at 37C, 5% CO2, 2 uL of resazurin was added to each well at a final concentration of 0.5 mM in phosphate buffered saline (PBS) with IGEPAL (Sigma-Aldrich), 0.05% (v/v).; assay type: functional, organism-based
Trypanosoma cruzi [9] = test: as §1, with “H2C9” for “Trypanosoma cruzi”, “H9c2 Host Cardiomyocytes.” for “Infected Cells.”, “Number” for “percentage”, “H9c2 Host Cardiomyocytes nuclei to determine drug-related cytotoxicity.” for “infected cells per well as a second infection marker.”; assay type: functional, organism-based, Rattus norvegicus; conditions: H9c2, 4 h
Leishmania donovani [10] = test: as §2, with “THP-1 Host” for “Infected”, “THP-1 cell count” for “Percent of infected macrophage cells”; assay type: functional, organism-based, Homo sapiens
Leishmania donovani [11] = test: as §2, with “Amastigotes/Macrophages.” for “Infected Macrophages.”, “Average number” for “Percent”, “amastigotes per” for “infected”, “cell” for “cells”; assay type: functional, organism-based, Homo sapiens; conditions: THP-1
Trypanosoma cruzi [12] = test: GSK_TCAKS: pIC50 Trypanosoma cruzi Imaging: Amastigotes/Cell. […] Cells were then washed once with PBS before infection. T. cruzi trypomastigotes, collected at days 5 to 8 after infection from LLC-MK2 parasite infected cultures, were allowed to swim out for 4h at 37C from a centrifuged pellet (2,500 rpm/10 min/room temperature). Trypomastigotes were then collected and counted in a CASY Cell Counter. Trypomastigotes, in supplemented DMEM, were added to H9c2 cultures in a multiplicity of infection of 1 and incubated for 18 h. Cells were washed once with PBS before incubation of the infected H9c2 monolayer with trypsin (Life-Technologies) to detach cells from the flask. Cells were counted in a CASY Cell Counter using a 150 um capillary and their density set at 5 * 10^4 cells per mL in supplemented assay DMEM. Infected H9c2 were dispensed into 384-well poly-lysine coated assay plates at 50uL per well using a Multidrop Combi dispenser. After seeding them, the plates were incubated at 37C, 5% CO2 for 72h. Cultures were then fixed and stained by addition of 50 uL of a solution containing 8% formaldehyde and 4 uM DRAQ5 DNA dye (BioStatus, UK) per well. […] Five images were collected per well for reliable statistical analysis. Automated image analysis was performed with a script developed on Acapella High Content Imaging and Analysis Software (PerkinElmer). Output: number of amastigotes per cell as infection level measurement.; assay type: functional, organism-based, Rattus norvegicus; conditions: H9c2, 4 h

Row | Structure (SMILES) | IC50 (Trypanosoma cruzi [1]) [µM] | IC50 [2] [µM] | IC50 [3] [µM] | IC50 [4] [µM] | IC50 at 48 h [5] [µM] | IC50 (Trypanosoma cruzi [6]) [µM] | IC50 (Leishmania donovani [7]) [µM] | IC50 (Leishmania donovani [8]) [µM] | IC50 (Trypanosoma cruzi [9]) [µM] | IC50 (Leishmania donovani [10]) [µM] | IC50 (Leishmania donovani [11]) [µM] | IC50 (Trypanosoma cruzi [12]) [µM]
1 | O=C(Nc1nc(-c2ccccn2)cs1)c1ccc(S(=O)(=O)N2CCCCC2)cc1 | 0.631 | 0.631 | 0.398 | 6.31 | 63.1 | 0.631 | 1.26 | 0.631 | 2.51 | 12.6 | 1 | 0.398
2 | Cc1ccccc1NS(=O)(=O)c1ccc2[nH]cc(C(=O)NC3CCCCC3)c(=O)c2c1 | 10 | 0.316 | 0.251 | 10 | 31.6 | 15.8 | 39.8 | > 50.1 | 25.1 | 31.6 | 39.8 | 10
3 | Cc1ccc(NC(=O)c2ccc([N+](=O)[O-])s2)cc1S(=O)(=O)N1CCOCC1 | 0.2 | 0.794 | 0.251 | 20 | 15.8 | 0.398 | 3.16 | 2 | 5.01 | 39.8 | 2 | 0.251
4 | CC1CCCN(S(=O)(=O)c2ccc(C(=O)Nc3nc(-c4ccccn4)cs3)cc2)C1 (centres undefined) | 0.398 | 0.398 | 0.2 | 2.51 | 39.8 | 0.501 | 0.251 | 1.58 | 3.16 | 5.01 | 0.158 | 0.251
5 | NC(=O)c1ccsc1NC(=O)c1ccc([N+](=O)[O-])s1 | 0.0794 | 1.58 | 0.2 | > 100 | > 100 | 0.126 | 1.58 | 0.316 | > 50.1 | 12.6 | 1.26 | 0.1
6 | COc1ccc(OC)c(NC(=O)c2ccc([N+](=O)[O-])o2)c1 | 3.16 | 0.0631 | 0.0158 | 10 | 20 | 12.6 | 31.6 | 25.1 | 3.98 | 20 | 15.8 | 7.94
7 | COCCn1c(-c2ccc3c(c2)OCO3)cnc1NCc1ccccc1OC | 7.94 | 25.1 | 20 | 5.01 | 39.8 | 20 | 10 | 12.6 | 39.8 | 39.8 | 5.01 | 7.94
8 | COCCn1c(-c2ccccc2)cnc1NCc1ccccc1OC | 14.1 | 15.8 | 25.1 | 7.94 | 20 | 15.8 | 6.31 | > 50.1 | > 50.1 | 50.1 | 6.31 | 6.31
9 | O=C(Nc1nccs1)c1ccccc1Cn1cc([N+](=O)[O-])cn1 | > 50.1 | 0.501 | 0.316 | > 100 | > 100 | > 50.1 | > 50.1 | > 50.1 | > 50.1 | > 50.1 | > 50.1 | > 50.1
10 | c1ccc(CNc2cccc3ccncc23)cc1 | 6.31 | > 39.8 | 25.1 | 0.1 | > 100 | 6.31 | 7.94 | 10 | > 50.1 | 50.1 | 5.01 | 5.01
11 | CCN(CC)S(=O)(=O)c1ccc(OC)c(NC(=O)c2ccc([N+](=O)[O-])s2)c1 | 0.251 | 0.631 | 0.398 | 31.6 | > 100 | 0.158 | > 50.1 | > 50.1 | > 50.1 | > 50.1 | > 50.1 | 0.126
12 | NS(=O)(=O)c1ccc(CNC(=O)c2ccc([N+](=O)[O-])s2)cc1 | 1 | 0.251 | 0.251 | 39.8 | 15.8 | 5.01 | 25.1 | 31.6 | 20 | 39.8 | 12.6 | 0.794
13 | Cc1ccccc1NS(=O)(=O)c1ccc2[nH]cc(C(=O)NC3CCCC3)c(=O)c2c1 | 25.1 | 0.631 | 0.316 | 12.6 | 25.1 | 31.6 | > 50.1 | > 50.1 | 20 | 31.6 | 39.8 | 25.1
14 | C[C@@H](Oc1cc(-n2cnc3ccc(C(O)CO)cc32)sc1C(N)=O)c1ccccc1C(F)(F)F (some centres undefined) | 5.01 | 0.794 | 0.398 | 25.1 | > 10 | 20 | 20 | 15.8 | 0.631 | 15.8 | 12.6 | 15.8
15 | COc1cccc(S(=O)(=O)Nc2ccc3c(c2)CC(N2CCC(NC(=O)C4CC4)CC2)C3)c1 (centres undefined) | 39.8 | 0.794 | 1 | 63.1 | > 100 | > 50.1 | > 50.1 | > 50.1 | > 50.1 | > 50.1 | 25.1 | 31.6
16 | O=C(NC1CCN(C2Cc3ccc(NS(=O)(=O)c4cc(F)cc(F)c4)cc3C2)CC1)C1CC1 (centres undefined) | > 50.1 | 0.794 | 1 | 50.1 | > 100 | > 50.1 | > 50.1 | 25.1 | > 50.1 | 12.6 | 12.6 | > 50.1
17 | COc1cccc(C(=O)[C@H]2C[C@@H]2CN(Cc2ccccn2)Cc2ccccn2)c1 | 1.26 | 20 | 15.8 | 31.6 | > 100 | 1.26 | 2 | 7.94 | 20 | > 50.1 | 1.58 | 0.794
